Source: patent publication US5723606A, “Condensed benzazepine derivative and pharmaceutical composition thereof” (priority 1993, dated 1998)
Structures can show the parent of a compound that is named as a salt. Where two headings read alike, the source gives them in different places.

Columns and labels:
[1] = target: arginine vasopressin V2 receptor (Oryctolagus cuniculus, UniProt G1TA00); assay: V2 receptor binding assay; parameters: species or system rabbit; details: for antagonism on V2 receptor (in words): compared with OPC-31260 and OPC-21268, cf. Table 1
V2 receptor = assay: V2 antagonism (water diuresis) in conscious rats (oral administration); assay type: in vivo, rat
Procedure: (4) V2 antagonism (water diuresis) in conscious rats (oral administration)
Each compound to be tested was suspended in 0.5% methylcellulose aqueous solution and orally administered in a dose of 3 mg/kg to male Wister rats (body weight, 270 to 300 g) which had been subjected to fasting with no water for 16 to 20 hours. Using a metabolic cage, urine samples were collected just after the administration of each test sample and until 4 hours after the administration to measure the amount of urine.

[2] = target: T1, arginine vasopressin V1 receptor (Rattus norvegicus, UniProt P30560); assay: V1 receptor binding assay; details: for antagonism on V1 receptor (in words): compared with OPC-31260 and OPC-21268, cf. Table 1
T1 construct: A rat liver membrane sample was prepared; from tissue; host or cells: rat liver membranes
Procedure: Usefulness of the compounds of the present invention was confirmed by the following tests. (1) V1 receptor binding assay
A rat liver membrane sample was prepared in accordance with the method of Nakamura et al. (J. Biol. Chem., 258, 9283 (1983)), and [^3 H]-Arg-vasopressin (2 nM, specific activity =75.8 Ci/mmol), 70 μg of the membrane sample and each drug to be tested (10^-8 to 10^-4 M) were incubated at 30° C. for 30 minutes in 250 μl of 100 mM Tris-HCl buffer (pH 8.0) containing 5 mM magnesium chloride, 1mM ethylenediaminetetraacetic acid (EDTA) and 0.1% bovine serum albumin (BSA). Thereafter, the incubation solution was sucked off using a cell harvester and free ligand and excess buffer were removed by passing the reaction mixture through a glass filter (GF/B), thereby trapping receptor-bound labeled ligand on the glass filter. The glass filter was taken out, thoroughly dried and then mixed with a liquid scintillation cocktail, and the amount of the membrane-bound [^3 H]-vasopressin was measured using a liquid scintillation counter to calculate the inhibition ratio by the following formula. [formula] C1 : amount of [^3 H]-vasopressin bound to the membrane in the coexistence of known amount of each drug to be tested and [^3 H]-vasopressin
C0 : amount of [^3 H]-vasopressin bound to the membrane when the drug to be tested was not added
B1 : amount of [^3 H]-vasopressin bound to the membrane in the presence of excess vasopressin (10^-6 M)
[formula] [L]: concentration of radioactive ligand KD: dissociation constant calculated from Scatchard plot
Negative logarithm of the thus calculated value was used as pKi value.

V1 receptor = assay: V1 antagonism in conscious rats (oral administration); assay type: in vivo, rat; details: 1 mg/kg oral, from 30 minutes to 6 hours after administration, AVP 30 mU/kg i.v.
[3] = rat liver membrane, [3H]-Arg-vasopressin 2 nM, read-out: Binding activity on arginine vasopressin V1 receptor (pki) (converted)

T1 sequence (P30560 whole entry): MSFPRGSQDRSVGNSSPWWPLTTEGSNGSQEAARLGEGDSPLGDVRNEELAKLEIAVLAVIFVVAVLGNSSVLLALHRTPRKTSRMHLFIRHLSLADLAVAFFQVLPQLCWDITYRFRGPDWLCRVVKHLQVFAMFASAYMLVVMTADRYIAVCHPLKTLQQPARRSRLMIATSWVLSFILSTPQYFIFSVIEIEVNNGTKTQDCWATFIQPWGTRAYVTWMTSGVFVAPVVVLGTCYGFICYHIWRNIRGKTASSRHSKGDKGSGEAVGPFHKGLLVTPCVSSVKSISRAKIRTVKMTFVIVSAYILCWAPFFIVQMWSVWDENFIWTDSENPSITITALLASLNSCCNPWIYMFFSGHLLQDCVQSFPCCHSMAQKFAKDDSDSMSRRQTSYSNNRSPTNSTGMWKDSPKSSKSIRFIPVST
arginine vasopressin V2 receptor, sequence (G1TA00 78-446): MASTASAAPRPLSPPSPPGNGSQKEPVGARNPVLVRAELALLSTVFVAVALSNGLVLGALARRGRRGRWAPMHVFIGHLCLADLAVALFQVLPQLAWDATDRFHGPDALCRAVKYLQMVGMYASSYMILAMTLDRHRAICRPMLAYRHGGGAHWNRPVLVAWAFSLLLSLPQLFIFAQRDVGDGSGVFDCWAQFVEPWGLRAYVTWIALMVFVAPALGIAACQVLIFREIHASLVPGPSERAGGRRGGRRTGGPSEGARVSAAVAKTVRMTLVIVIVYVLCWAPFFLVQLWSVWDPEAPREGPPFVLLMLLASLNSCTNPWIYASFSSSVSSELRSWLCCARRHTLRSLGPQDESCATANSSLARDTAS

Structure (SMILES) | Ki [2, 3] | antagonism on V2 receptor (in words) [1] | antagonism on V1 receptor (in words) [2] | other results
Cc1ccccc1C(=O)Nc1ccc(C(=O)N2CCCC(N(C)C)c3ccccc32)cc1 (centres unmarked) [(1), reference compound] |  |  |  | Binding activity on arginine vasopressin V2 receptor (pki) ([1]; rabbit renal medulla membrane, [3H]-Arg-vasopressin 2 nM): 8.01; amount of urine relative to the solvent-administered group (V2 receptor; 3 mg/kg oral, from 2 hours to 4 hours after administration, fasted conscious rats): almost the same as that in the solvent-administered group; amount of urine relative to the solvent-administered group (V2 receptor; po, 3 mg/kg, 2 h): 11 times; Binding activity on arginine vasopressin V1 receptor (pki) ([2]; rat liver membrane, [3H]-Arg-vasopressin 2 nM): 6.71
Nc1nc2c(s1)CCN(C(=O)c1ccc(NC(=O)c3ccccc3-c3ccccc3)cc1)c1ccccc1-2 [Example 1, 4'-[(2-amino-5,6-dihydro-4H-thiazolo[5,4-d][1]benzazepin-6-yl)carbonyl]-2-phenylbenzanilide hydrobromate] | 4.68 nM |  |  | 
N=C(N)Nc1nc2c(s1)CCN(C(=O)c1ccc(NC(=O)c3ccccc3-c3ccccc3)cc1)c1ccccc1-2 [Example 2, 4'-[(2-guanidino-5,6-dihydro-4H-thiazolo[5,4-d][1]benzazepin-6-yl)carbonyl]-2-phenylbenzanilide hydrobromate] | 1.51 nM |  |  | 
Cc1ccc(-c2ccccc2C(=O)Nc2ccc(C(=O)N3CCc4sc(NC(=N)N)nc4-c4ccccc43)cc2)cc1 [Example 4, 4'-[(2-guanidino-5,6-dihydro-4H-thiazolo[5,4-d][1]benzazepin-6-yl)carbonyl]-2-(4-methylphenyl)benzanilide hydrobromate] | 4.37 nM |  |  | 
Cc1nc(Cc2nc3c(s2)CCN(C(=O)c2ccc(NC(=O)c4ccccc4-c4ccccc4)cc2)c2ccccc2-3)c[nH]1 [Example 6, 4'-[[2-[4-(2-methylimidazolyl)methyl]-5,6-dihydro-4H-thiazolo[5,4-d][1]benzazepin-6-yl)carbonyl]-2-phenylbenzanilide.2HCl] | 11.2 nM |  |  | 
O=C(Nc1ccc(C(=O)N2CCc3sc(Cc4cccnc4)nc3-c3ccccc32)cc1)c1ccccc1-c1ccccc1 [Example 8, 4'-[[2-(3-pyridylmethyl)-5,6-dihydro-4H-thiazolo[5,4-d][1]benzazepin-6-yl)carbonyl]-2-phenylbenzanilide hydrochloride] | 18.2 nM |  |  | 
CN(C)CCNc1nc2c(s1)CCN(C(=O)c1ccc(NC(=O)c3ccccc3-c3ccccc3)cc1)c1ccccc1-2 [Example 10, 4'-[(2-dimethylaminoethylamino-5,6-dihydro-4H-thiazolo[5,4-d][1]benzazepin-6-yl)carbonyl]-2-phenylbenzanilide.2 HCl] | 2.45 nM |  |  | 
CN(C)CCCc1nc2c(s1)CCN(C(=O)c1ccc(NC(=O)c3ccccc3-c3ccccc3)cc1)c1ccccc1-2 [Example 12, 4'-[[2-(3-dimethylaminopropyl)-5,6-dihydro-4H-thiazolo[5,4-d][1]benzazepin-6-yl)carbonyl]-2-phenylbenzanilide hydrochloride] | 3.02 nM |  |  | 
NCCc1nc2c(s1)CCN(C(=O)c1ccc(NC(=O)c3ccccc3-c3ccccc3)cc1)c1ccccc1-2 [Example 15, 4'-[(2-aminoethyl-5,6-dihydro-4H-thiazolo[5,4-d][1]benzazepin-6-yl)carbonyl]-2-phenylbenzanilide hydrochloride] |  |  |  | Ki [2]: 1.23 nM
CC(C)O.Cl.NCC(=O)Nc1nc2c(s1)CCN(C(=O)c1ccc(NC(=O)c3ccccc3-c3ccccc3)cc1)c1ccccc1-2 [Example 17, 4'-[(2-glycylamino-5,6-dihydro-4H-thiazolo[5,4-d][1]benzazepin-6-yl)carbonyl]-2-phenylbenzanilide 2-propylalcohol hydrochloride] | 0.912 nM | excellent antagonisms | excellent antagonisms | 
Cc1nc2c(o1)-c1ccccc1N(C(=O)c1ccc(NC(=O)c3ccccc3-c3ccccc3)cc1)CC2 [Example 18(1), 4'-[(2-Methyl-5,6-dihydro-4H-oxazolo[4,5-d][1]benzazepin-6-yl)carbonyl]-2-phenylbenzanilide] | 4.27 nM |  |  | 
Cc1nc2c([nH]1)-c1ccccc1N(C(=O)c1ccc(NC(=O)c3ccccc3-c3ccccc3)cc1)CC2.Cl [Example 18(2), 4'-[(2-methyl-1,4,5,6-tetrahydroimidazo[4,5-d][1]benzazepin-6-yl)carbonyl]-2-phenylbenzanilide hydrochloride] |  | excellent antagonisms | excellent antagonisms | Pressure increase by AVP (diastolic blood pressure, pre-dose increase = 100%) (V1 receptor): ≤ 50%; amount of urine relative to the solvent-administered group (V2 receptor; po, 3 mg/kg): 8-10 times; amount of urine relative to the solvent-administered group (V2 receptor; po, 3 mg/kg, 2 h): 47-95 times; Ki [2]: 0.891 nM
CCc1nc2c([nH]1)-c1ccccc1N(C(=O)c1ccc(NC(=O)c3ccccc3-c3ccccc3)cc1)CC2.Cl [Example 20, 4'-[(2-ethyl-1,4,5,6-tetrahydroimidazo[4,5-d][1]benzazepin-6-yl)carbonyl]-2-phenylbenzanilide hydrochloride] | 0.661 nM | excellent antagonisms | excellent antagonisms | amount of urine relative to the solvent-administered group (V2 receptor; po, 3 mg/kg): 8-10 times; amount of urine relative to the solvent-administered group (V2 receptor; po, 3 mg/kg, 2 h): 47-95 times
CCCc1nc2c([nH]1)-c1ccccc1N(C(=O)c1ccc(NC(=O)c3ccccc3-c3ccccc3)cc1)CC2.Cl [Example 21, 4'-[(2-propyl-1,4,5,6-tetrahydroimidazo[4,5-d][1]benzazepin-6-yl)carbonyl]-2-phenylbenzanilide hydrochloride] | 1.82 nM | excellent antagonisms | excellent antagonisms | Pressure increase by AVP (diastolic blood pressure, pre-dose increase = 100%) (V1 receptor): ≤ 50%; amount of urine relative to the solvent-administered group (V2 receptor; po, 3 mg/kg): 8-10 times; amount of urine relative to the solvent-administered group (V2 receptor; po, 3 mg/kg, 2 h): 47-95 times
Cl.O=C(Nc1ccc(C(=O)N2CCc3nc(C4CC4)[nH]c3-c3ccccc32)cc1)c1ccccc1-c1ccccc1 [Example 23, 4'-[(2-cyclopropyl-1,4,5,6-tetrahydroimidazo[4,5-d][1]benzazepin-6-yl)carbonyl]-2-phenylbenzanilide hydrochloride] |  | excellent antagonisms | excellent antagonisms | Pressure increase by AVP (diastolic blood pressure, pre-dose increase = 100%) (V1 receptor): ≤ 50%; amount of urine relative to the solvent-administered group (V2 receptor; po, 3 mg/kg): 8-10 times; amount of urine relative to the solvent-administered group (V2 receptor; po, 3 mg/kg, 2 h): 47-95 times
Cc1nc2c([nH]1)-c1ccccc1N(C(=O)c1ccc(NC(=O)c3ccccc3C)cc1)CC2 [Example 24, 2-methyl-4'-[(2-methyl-1,4,5,6-tetrahydroimidazo[4,5-d][1]benzazepin-6-yl)carbonyl]benzanilide hydrochloride] | 17 nM |  |  | 
Cc1nc2c([nH]1)-c1ccccc1N(C(=O)c1ccc(NC(=O)c3ccccc3OC(C)C)cc1)CC2 [Example 27, 2-isopropoxy-4'-[(2-methyl-1,4,5,6-tetrahydroimidazo[4,5-d][1]benzazepin-6-yl)carbonyl]benzanilide hydrochloride] | 6.17 nM |  |  | 
NCCCCc1nc2c([nH]1)-c1ccccc1N(C(=O)c1ccc(NC(=O)c3ccccc3-c3ccccc3)cc1)CC2 [Example 37, 4'-[[2-(4-aminobutyl)-1,4,5,6-tetrahydroimidazo[4,5-d][1]benzazepin-6-yl]carbonyl]-2-phenylbenzanilide.2 HCl] | 0.324 nM | excellent antagonisms | excellent antagonisms | 
Cc1nc2c([nH]1)-c1ccccc1N(C(=O)c1ccc(NC(=O)C3(c4ccccc4)CCCC3)cc1)CC2 [Example 38, N-[4-[(2-methyl-1,4,5,6-tetrahydroimidazo[4,5-d][1]benzazepin-6-yl)carbonyl]phenylcyclopentanecarboxamido hydrochloride] | 5.75 nM |  |  | 
